# pEC50: −log10 of the molar value. Structures can show the parent of a compound that is named as a salt. Where two headings read alike, the source gives them in different places.
# What was measured:
# [1] = Compound cytotoxicity (CC50), XTT-based colorimetric assay; assay type: cell-based; conditions: human; uninfected MT2 cells, day 4, XTT assay
# Summary of the method: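 Run under the antiviral-assay protocol but without virus. Viability was read on day 4 and CC50 values were derived from the readout.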
# [2] = tested on: recombinant NL4-3 virus (nef section replaced with Renilla luciferase gene) in MT-2 cells; test: whole plant or invertebrate; assay type: cell-based, HIV
# Summary of the method: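 Nef-deleted NL4-3 reporter virus carrying Renilla luciferase was used to infect MT-2 cells in the presence of serial compound dilutions. After 4-5 days of infection, antiviral activity was quantified from luciferase activity using a live-cell substrate.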
# [3] = NL43, luciferase activity in MT-2 cells infected 4-5 days with recombinant NL4-3 virus, read-out: Activity
# [4] = NL43, luciferase activity in MT-2 cells infected 4-5 days with recombinant NL4-3 virus, read-out: EC50
Compound,CC50 at 4 day [1],"pEC50 [2, 3]","pEC50 [2, 4]","pEC50 ([2]; NL43, read-out: Activity)"
"Cc1ccccc1S(=O)(=O)NC(=O)N[C@@H](Cc1cc(F)cc(F)c1)c1ncccc1-c1ccc2ccncc2c1 [Example 90, (S)-N-((2-(3,5-difluorophenyl)-1-(3-(isoquinolin-7-yl)pyridin-2-yl)ethyl)carbamoyl)-2-methylbenzenesulfonamide]",> 100000 nM,6.00 to 7.00,6.64,
"COc1ccc(-n2ccnc2[C@H](Cc2ccccc2)NC(=O)NS(=O)(=O)c2cccc(Cl)c2Cl)cc1 [Example 56, (S)-2,3-dichloro-N-((1-(1-(4-methoxyphenyl)-1H-imidazol-2-yl)-2-phenylethyl)carbamoyl)benzenesulfonamide]",> 100000 nM,> 7.00,,
"Cc1ccc2cc(-n3ccnc3[C@H](Cc3ccccc3)NC(=O)NS(=O)(=O)c3ccccc3C)ccc2n1 [Example 67, (S)-2-methyl-N-((1-(1-(2-methylquinolin-6-yl)-1H-imidazol-2-yl)-2-phenylethyl)carbamoyl)benzenesulfonamide]",> 100000 nM,> 7.00,,
"Cc1ccccc1S(=O)(=O)NC(=O)N[C@@H](Cc1ccccc1)c1nccn1-c1cnn(-c2ccccc2)c1 [Example 80, (S)-2-methyl-N-((2-phenyl-1-(1-(1-phenyl-1H-pyrazol-4-yl)-1H-imidazol-2-yl)ethyl)carbamoyl)benzenesulfonamide]",> 100000 nM,> 7.00,,
"Cc1ccccc1S(=O)(=O)NC(=O)N[C@@H](Cc1ccccc1)c1nccn1-c1ccccc1 [Example 31, (S)-2-methyl-N-((2-phenyl-1-(1-phenyl-1H-imidazol-2-yl)ethyl)carbamoyl)benzenesulfonamide]",> 100000 nM,6.00 to 7.00,,
"COC(=O)Nc1ccc(-n2ccnc2[C@H](Cc2ccccc2)NC(=O)NS(=O)(=O)c2cccc(Cl)c2Cl)cc1 [Example 51, (S)-methyl (4-(2-(1-(3-((2,3-dichlorophenyl)sulfonyl)ureido)-2-phenylethyl)-1H-imidazol-1-yl)phenyl)carbamate]",> 100000 nM,6.00 to 7.00,6.80,
"Cc1ccccc1S(=O)(=O)NC(=O)N[C@@H](Cc1ccccc1)c1nccn1-c1cccc(-n2cccc2)c1 [Example 4, (S)-N-((1-(1-(3-(1H-pyrrol-1-yl)phenyl)-1H-imidazol-2-yl)-2-phenylethyl)carbamoyl)-2-methyl-benzenesulfonamide]",> 100000 nM,< 6.00,,
"CCOc1ccc(-c2cccnc2[C@H](Cc2cc(F)cc(F)c2)NC(=O)NS(=O)(=O)c2ccccc2C)cc1F [Example 123, (S)-N-((2-(3,5-difluorophenyl)-1-(3-(4-ethoxy-3-fluorophenyl)pyridin-2-yl)ethyl)carbamoyl)-2-methylbenzenesulfonamide, TFA]",55000 nM,6.00 to 7.00,6.22,
"COC(=O)Nc1ccc(-c2cccnc2[C@H](Cc2cc(F)cc(F)c2)NC(=O)NS(=O)(=O)c2ccccc2C)cc1 [Example 89, (S)-methyl (4-(2-(2-(3,5-difluorophenyl)-1-(3-(o-tolylsulfonyl)ureido)ethyl)pyridin-3-yl)phenyl)carbamate]",> 100000 nM,,,6.00 to 7.00
"CCCOc1ccc(-n2ccnc2[C@H](Cc2ccccc2)NC(=O)NS(=O)(=O)c2ccccc2C)cc1Cl [Example 25, (S)-N-((1-(1-(3-chloro-4-propoxyphenyl)-1H-imidazol-2-yl)-2-phenylethyl)carbamoyl)-2-methylbenzenesulfonamide]",50000 nM,> 7.00,,
"Cc1cc(-c2cccnc2[C@H](Cc2cc(F)cc(F)c2)NC(=O)NS(=O)(=O)c2ccccc2C)c(C)s1 [Example 133, (S)-N-((2-(3,5-difluorophenyl)-1-(3-(2,5-dimethylthiophen-3-yl)pyridin-2-yl)ethyl)carbamoyl)-2-methylbenzenesulfonamide, TFA]",71000 nM,< 6.00,,
"Cc1ccccc1S(=O)(=O)NC(=O)N[C@@H](Cc1ccccc1)c1nccn1-c1ccc(-c2ccoc2C)cc1 [Example 62, (S)-2-methyl-N-((1-(1-(4-(2-methylfuran-3-yl)phenyl)-1H-imidazol-2-yl)-2-phenylethyl)carbamoyl)benzenesulfonamide]",> 100000 nM,> 7.00,,
"Cc1ccccc1S(=O)(=O)NC(=O)N[C@@H](Cc1cc(F)cc(F)c1)c1ncccc1-c1ccnc(F)c1C [Example 126, (S)-N-((2-(3,5-difluorophenyl)-1-(2′-fluoro-3′-methyl-[3,4′-bipyridin]-2-yl)ethyl)carbamoyl)-2-methylbenzenesulfonamide, TFA]",> 33000 nM,< 6.00,5.82,
"CCOc1ccc(-c2cccnc2[C@@H](Cc2ccccc2)NC(=O)NS(=O)(=O)c2ccccc2C)cc1 [Example 105, (R)-N-((1-(3-(4-ethoxyphenyl)pyridin-2-yl)-2-phenylethyl)carbamoyl)-2-methylbenzenesulfonamide, TFA]",75000 nM,< 6.00,4.78,
"Cc1ccccc1S(=O)(=O)NC(=O)N[C@@H](Cc1ccccc1)c1nccn1-c1ccc2c(c1)ncn2C [Example 66, (S)-2-methyl-N-((1-(1-(1-methyl-1H-benzo[d]imidazol-5-yl)-1H-imidazol-2-yl)-2-phenylethyl)carbamoyl)benzenesulfonamide]",> 100000 nM,6.00 to 7.00,6.47,
"CCOc1ccc(-c2cccnc2[C@H](Cc2cc(F)cc(F)c2)NC(=O)NS(=O)(=O)c2ccccc2C)cc1 [Example 94, (S)-N-((2-(3,5-difluorophenyl)-1-(3-(4-ethoxyphenyl)pyridin-2-yl)ethyl)carbamoyl)-2-methylbenzenesulfonamide, TFA]",> 100000 nM,6.00 to 7.00,,
"Cc1ccccc1S(=O)(=O)NC(=O)N[C@@H](Cc1ccccc1)c1nccn1-c1ccc(-c2ccoc2)cc1 [Example 59, (S)-N-((1-(1-(4-(furan-3-yl)phenyl)-1H-imidazol-2-yl)-2-phenylethyl)carbamoyl)-2-methylbenzenesulfonamide]",> 33000 nM,> 7.00,,
"Cc1ccccc1S(=O)(=O)NC(=O)N[C@@H](Cc1ccccc1)c1nccn1-c1cccc(Cl)c1 [Example 12, (S)-N-((1-(1-(3-chlorophenyl)-1H-imidazol-2-yl)-2-phenylethyl)carbamoyl)-2-methylbenzenesulfonamide]",> 100000 nM,> 7.00,7.30,
"Cc1ccccc1S(=O)(=O)NC(=O)N[C@@H](Cc1ccccc1)c1nccn1-c1cccc(-c2ccoc2)c1 [Example 65, (S)-N-((1-(1-(3-(furan-3-yl)phenyl)-1H-imidazol-2-yl)-2-phenylethyl)carbamoyl)-2-methylbenzenesulfonamide]",> 100000 nM,6.00 to 7.00,,
"Cc1ccccc1S(=O)(=O)NC(=O)NC(Cc1ccccc1)c1ncccc1Br (centres unmarked) [Example 116, N-((1-(3-bromopyridin-2-yl)-2-phenylethyl)carbamoyl)-2-methylbenzenesulfonamide, TFA]",> 100000 nM,< 6.00,,
"COC(=O)Nc1ccc(-n2ccnc2[C@H](Cc2ccccc2)NC(=O)NS(=O)(=O)c2ccc(C)s2)cc1 [Example 46, (S)-methyl (4-(2-(1-(3-((5-methylthiophen-2-yl)sulfonyl)ureido)-2-phenylethyl)-1H-imidazol-1-yl)phenyl)carbamate]",> 100000 nM,6.00 to 7.00,,
"O=C(N[C@@H](Cc1ccccc1)c1nccn1-c1ccc(-c2ccoc2)cc1)NS(=O)(=O)c1ccccc1F [Example 64, (S)-2-fluoro-N-((1-(1-(4-(furan-3-yl)phenyl)-1H-imidazol-2-yl)-2-phenylethyl)carbamoyl)benzenesulfonamide]",> 100000 nM,> 7.00,,
"Cc1ccccc1S(=O)(=O)NC(=O)N[C@@H](Cc1cc(F)cc(F)c1)c1ncccc1-c1cncc(F)c1 [Example 100, (S)-N-((2-(3,5-difluorophenyl)-1-(5′-fluoro-[3,3′-bipyridin]-2-yl)ethyl)carbamoyl)-2-methylbenzenesulfonamide, 2 TFA]",> 100000 nM,< 6.00,,
"COC(=O)Nc1ccc(-n2ccnc2[C@H](Cc2ccccc2)NC(=O)NS(=O)(=O)c2cc(Cl)sc2Cl)cc1 [Example 55, (S)-methyl (4-(2-(1-(3-((2,5-dichlorothiophen-3-yl)sulfonyl)ureido)-2-phenylethyl)-1H-imidazol-1-yl)phenyl)carbamate]",> 100000 nM,> 7.00,,
"Cc1ccccc1S(=O)(=O)NC(=O)N[C@@H](Cc1cc(F)cc(F)c1)c1ncccc1-c1ccc(C#N)cc1 [Example 128, (S)-N-((1-(3-(4-cyanophenyl)pyridin-2-yl)-2-(3,5-difluorophenyl)ethyl)carbamoyl)-2-methylbenzenesulfonamide, TFA]",80000 nM,< 6.00,,
"COC(=O)Nc1ccc(-n2ccnc2[C@H](Cc2ccccc2)NC(=O)NS(=O)(=O)c2cccc(Cl)c2)cc1 [Example 54, (S)-methyl (4-(2-(1-(3-((3-chlorophenyl)sulfonyl)ureido)-2-phenylethyl)-1H-imidazol-1-yl)phenyl)carbamate]",> 100000 nM,6.00 to 7.00,6.82,
"Cc1nc2cc(-n3ccnc3[C@H](Cc3ccccc3)NC(=O)NS(=O)(=O)c3ccccc3F)ccc2s1 [Example 73, (S)-2-fluoro-N-((1-(1-(2-methylbenzo[d]thiazol-5-yl)-1H-imidazol-2-yl)-2-phenylethyl)carbamoyl)benzenesulfonamide]",> 100000 nM,6.00 to 7.00,,
"Cc1ccccc1S(=O)(=O)NC(=O)N[C@@H](Cc1ccccc1)c1nccn1-c1ccc(-c2ccsc2)cc1 [Example 60, (S)-2-methyl-N-((2-phenyl-1-(1-(4-(thiophen-3-yl)phenyl)-1H-imidazol-2-yl)ethyl)carbamoyl)benzenesulfonamide]",> 100000 nM,> 7.00,7.52,

# From patent US9855230B2 (ViiV Healthcare UK (No. 5) Limited, priority 2014, dated 2018)
